Assay results from ChEMBL document CHEMBL5649169 (ChemMedChem, 2018).

Legend:
[1] = target: Testis-expressed protein 264 (Homo sapiens) (UniProt Q9Y6I9)
[2] = target: DNA repair protein RAD50 (Homo sapiens) (UniProt Q92878)
[3] = target: Insulin-like growth factor 1 receptor (Homo sapiens) (UniProt P08069)
[4] = target: Tyrosine-protein kinase JAK1 (Homo sapiens) (UniProt P23458)
[5] = target: Adenosylhomocysteinase (Homo sapiens) (UniProt P23526)
[6] = target: Ras association domain-containing protein 5 (Homo sapiens) (UniProt Q8WWW0)
[7] = target: Heterogeneous nuclear ribonucleoprotein D0 (Homo sapiens) (UniProt Q14103)
Heterogeneous nuclear ribonucleoprotein D0 (Homo sapiens), sequence (Q14103 whole entry): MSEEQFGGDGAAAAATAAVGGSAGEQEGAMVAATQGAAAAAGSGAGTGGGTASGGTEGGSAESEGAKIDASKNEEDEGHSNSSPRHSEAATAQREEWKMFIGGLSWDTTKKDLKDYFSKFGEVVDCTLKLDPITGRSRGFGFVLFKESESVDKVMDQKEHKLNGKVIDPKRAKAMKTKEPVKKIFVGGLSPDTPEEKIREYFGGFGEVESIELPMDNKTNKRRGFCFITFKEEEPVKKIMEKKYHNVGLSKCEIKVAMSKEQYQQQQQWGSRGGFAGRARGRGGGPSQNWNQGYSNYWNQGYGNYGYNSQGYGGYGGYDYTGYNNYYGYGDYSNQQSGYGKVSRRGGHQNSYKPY

[8] = target: F-actin-capping protein subunit alpha-2 (Homo sapiens) (UniProt P47755)
[9] = target: Serine/arginine-rich splicing factor 1 (Homo sapiens) (UniProt Q07955)
[10] = target: T-complex protein 1 subunit zeta (Homo sapiens) (UniProt P40227)
T-complex protein 1 subunit zeta (Homo sapiens), sequence (P40227 whole entry, one chain of several): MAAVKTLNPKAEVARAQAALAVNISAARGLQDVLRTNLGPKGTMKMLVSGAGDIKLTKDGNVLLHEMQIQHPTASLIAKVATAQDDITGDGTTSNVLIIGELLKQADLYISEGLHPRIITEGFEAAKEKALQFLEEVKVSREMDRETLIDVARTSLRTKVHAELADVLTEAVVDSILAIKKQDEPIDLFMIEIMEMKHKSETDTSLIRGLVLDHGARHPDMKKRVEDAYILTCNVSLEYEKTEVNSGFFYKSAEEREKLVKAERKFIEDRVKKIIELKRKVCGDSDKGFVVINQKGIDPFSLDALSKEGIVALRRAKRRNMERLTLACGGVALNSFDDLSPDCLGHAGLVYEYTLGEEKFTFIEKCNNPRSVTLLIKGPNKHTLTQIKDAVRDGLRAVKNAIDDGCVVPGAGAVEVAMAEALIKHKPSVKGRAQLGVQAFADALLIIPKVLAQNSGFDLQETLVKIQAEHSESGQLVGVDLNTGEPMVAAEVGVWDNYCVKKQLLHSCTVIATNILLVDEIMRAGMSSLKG

[11] = target: Ataxin-2-like protein (Homo sapiens) (UniProt Q8WWM7)
[12] = target: Enoyl-CoA delta isomerase 1, mitochondrial (Homo sapiens) (UniProt P42126)
Enoyl-CoA delta isomerase 1, mitochondrial (Homo sapiens), sequence (P42126 whole entry): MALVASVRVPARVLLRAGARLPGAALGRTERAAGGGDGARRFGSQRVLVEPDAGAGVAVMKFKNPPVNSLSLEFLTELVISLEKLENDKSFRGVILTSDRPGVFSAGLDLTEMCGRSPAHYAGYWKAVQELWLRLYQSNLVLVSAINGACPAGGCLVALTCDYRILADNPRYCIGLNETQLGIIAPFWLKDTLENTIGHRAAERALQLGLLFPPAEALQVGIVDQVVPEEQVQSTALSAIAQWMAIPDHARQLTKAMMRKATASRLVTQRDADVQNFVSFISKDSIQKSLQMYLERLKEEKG

[13] = target: Translocator protein (Homo sapiens) (UniProt P30536)
Translocator protein (Homo sapiens), sequence (P30536 whole entry): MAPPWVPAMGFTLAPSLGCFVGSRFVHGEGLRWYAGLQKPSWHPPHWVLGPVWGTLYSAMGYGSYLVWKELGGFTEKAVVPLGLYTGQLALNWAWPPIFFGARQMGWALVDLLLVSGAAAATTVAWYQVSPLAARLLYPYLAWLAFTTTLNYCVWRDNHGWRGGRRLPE

[14] = target: Surfeit locus protein 4 (Homo sapiens) (UniProt O15260)
[15] = target: Fatty acid synthase (Homo sapiens) (UniProt P49327)
[16] = target: Eukaryotic translation initiation factor 4H (Homo sapiens) (UniProt Q15056)
[17] = target: TANK-binding kinase 1-binding protein 1 (Homo sapiens) (UniProt A7MCY6)
[18] = target: Conserved oligomeric Golgi complex subunit 4 (Homo sapiens) (UniProt Q9H9E3)
[19] = target: cAMP-dependent protein kinase catalytic subunit gamma (Homo sapiens) (UniProt P22612)
[20] = target: V-type proton ATPase subunit G 1 (Homo sapiens) (UniProt O75348)
[21] = target: Galactocerebrosidase (Homo sapiens) (UniProt P54803)
[22] = target: Dual specificity testis-specific protein kinase 2 (Homo sapiens) (UniProt Q96S53)
Dual specificity testis-specific protein kinase 2 (Homo sapiens), sequence (Q96S53 whole entry, looked up): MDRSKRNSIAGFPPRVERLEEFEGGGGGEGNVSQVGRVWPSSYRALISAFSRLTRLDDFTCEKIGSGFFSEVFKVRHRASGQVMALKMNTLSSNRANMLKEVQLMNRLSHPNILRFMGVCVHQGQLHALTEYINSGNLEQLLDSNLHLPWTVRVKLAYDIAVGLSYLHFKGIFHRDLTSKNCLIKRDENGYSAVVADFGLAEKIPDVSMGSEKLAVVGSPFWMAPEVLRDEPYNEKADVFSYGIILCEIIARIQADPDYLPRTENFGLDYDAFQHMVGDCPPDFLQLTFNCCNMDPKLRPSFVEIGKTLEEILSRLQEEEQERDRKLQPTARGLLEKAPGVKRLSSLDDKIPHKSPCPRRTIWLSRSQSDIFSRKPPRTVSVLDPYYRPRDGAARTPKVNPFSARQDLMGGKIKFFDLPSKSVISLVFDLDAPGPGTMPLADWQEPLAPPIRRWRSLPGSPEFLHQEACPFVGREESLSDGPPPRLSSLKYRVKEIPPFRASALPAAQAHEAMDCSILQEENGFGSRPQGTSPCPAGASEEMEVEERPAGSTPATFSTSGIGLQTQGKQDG

[23] = target: Ferrochelatase, mitochondrial (Homo sapiens) (UniProt P22830)
[24] = target: Serine/threonine-protein kinase PAK 6 (Homo sapiens) (UniProt Q9NQU5)
[25] = target: Tubulin beta-4B chain (Homo sapiens) (UniProt P68371)
[26] = target: Interleukin-1 receptor-associated kinase 3 (Homo sapiens) (UniProt Q9Y616)
[27] = target: Dolichyl-diphosphooligosaccharide--protein glycosyltransferase subunit STT3A (Homo sapiens) (UniProt P46977)
[28] = target: Peptidyl-prolyl cis-trans isomerase FKBP4 (Homo sapiens) (UniProt Q02790)
[29] = target: Peroxisomal acyl-coenzyme A oxidase 3 (Homo sapiens) (UniProt O15254)
[30] = target: ATP-dependent DNA helicase Q1 (Homo sapiens) (UniProt P46063)
ATP-dependent DNA helicase Q1 (Homo sapiens), sequence (P46063 whole entry): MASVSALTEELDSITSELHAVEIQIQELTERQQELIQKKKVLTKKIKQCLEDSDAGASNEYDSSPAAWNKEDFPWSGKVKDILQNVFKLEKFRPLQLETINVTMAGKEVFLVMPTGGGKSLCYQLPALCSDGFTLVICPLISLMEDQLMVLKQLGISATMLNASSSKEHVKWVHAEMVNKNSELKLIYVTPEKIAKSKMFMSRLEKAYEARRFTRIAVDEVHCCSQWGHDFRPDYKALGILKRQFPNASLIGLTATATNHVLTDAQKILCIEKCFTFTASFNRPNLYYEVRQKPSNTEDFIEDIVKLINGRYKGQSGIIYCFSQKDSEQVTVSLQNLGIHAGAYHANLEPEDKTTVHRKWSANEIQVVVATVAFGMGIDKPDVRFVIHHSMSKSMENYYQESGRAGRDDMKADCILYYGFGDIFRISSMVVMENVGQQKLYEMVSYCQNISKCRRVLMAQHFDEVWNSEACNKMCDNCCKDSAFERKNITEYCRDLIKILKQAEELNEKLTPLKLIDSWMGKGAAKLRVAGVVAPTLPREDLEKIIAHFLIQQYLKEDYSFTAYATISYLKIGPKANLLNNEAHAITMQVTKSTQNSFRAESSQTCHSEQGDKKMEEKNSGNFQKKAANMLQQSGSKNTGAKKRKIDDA

[31] = organism: Homo sapiens
[32] = target: Ras-related protein Rab-8A (Homo sapiens) (UniProt P61006)
[33] = target: GTP-binding protein 4 (Homo sapiens) (UniProt Q9BZE4)
[34] = target: Calcium load-activated calcium channel (Homo sapiens) (UniProt Q9UM00)
[35] = target: Protein transport protein Sec23A (Homo sapiens) (UniProt Q15436)
[36] = target: Dolichyl-diphosphooligosaccharide--protein glycosyltransferase subunit 1 (Homo sapiens) (UniProt P04843)
[37] = target: Serine/threonine-protein kinase ULK1 (Homo sapiens) (UniProt O75385)
[38] = target: Mitochondrial import inner membrane translocase subunit TIM50 (Homo sapiens) (UniProt Q3ZCQ8)
[39] = target: Coatomer subunit beta' (Homo sapiens) (UniProt P35606)
[40] = target: Rab GDP dissociation inhibitor beta (Homo sapiens) (UniProt P50395)
[41] = target: Peflin (Homo sapiens) (UniProt Q9UBV8)
[42] = target: THO complex subunit 2 (Homo sapiens) (UniProt Q8NI27)
[43] = target: DNA damage-binding protein 1 (Homo sapiens) (UniProt Q16531)
[44] = target: Poly(rC)-binding protein 1 (Homo sapiens) (UniProt Q15365)
Poly(rC)-binding protein 1 (Homo sapiens), sequence (Q15365 whole entry): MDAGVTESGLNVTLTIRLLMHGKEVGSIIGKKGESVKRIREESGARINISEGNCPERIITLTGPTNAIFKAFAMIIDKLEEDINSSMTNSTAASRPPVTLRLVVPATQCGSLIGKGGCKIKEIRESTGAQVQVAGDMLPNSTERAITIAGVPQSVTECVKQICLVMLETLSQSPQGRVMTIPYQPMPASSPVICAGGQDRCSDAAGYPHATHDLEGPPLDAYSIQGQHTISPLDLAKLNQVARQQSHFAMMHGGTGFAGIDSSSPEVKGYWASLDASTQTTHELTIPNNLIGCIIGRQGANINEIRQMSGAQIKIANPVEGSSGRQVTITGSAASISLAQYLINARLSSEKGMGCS

[45] = target: Phosphatidylinositol 5-phosphate 4-kinase type-2 gamma (Homo sapiens) (UniProt Q8TBX8)
Phosphatidylinositol 5-phosphate 4-kinase type-2 gamma (Homo sapiens), sequence (Q8TBX8 whole entry): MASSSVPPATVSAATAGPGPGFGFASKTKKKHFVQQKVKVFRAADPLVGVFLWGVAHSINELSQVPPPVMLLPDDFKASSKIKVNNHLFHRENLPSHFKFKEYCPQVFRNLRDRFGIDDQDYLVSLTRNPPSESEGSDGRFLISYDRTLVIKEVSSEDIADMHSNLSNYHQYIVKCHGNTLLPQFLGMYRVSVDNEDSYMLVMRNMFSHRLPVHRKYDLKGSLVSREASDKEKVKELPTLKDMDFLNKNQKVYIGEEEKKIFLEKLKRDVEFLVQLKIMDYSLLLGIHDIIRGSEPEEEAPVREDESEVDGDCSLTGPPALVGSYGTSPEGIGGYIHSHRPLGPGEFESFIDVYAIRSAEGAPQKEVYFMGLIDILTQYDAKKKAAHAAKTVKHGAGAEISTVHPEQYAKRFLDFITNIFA

[46] = target: Mammalian ependymin-related protein 1 (Homo sapiens) (UniProt Q9UM22)
[47] = target: Mitochondrial import inner membrane translocase subunit TIM44 (Homo sapiens) (UniProt O43615)
Note: assay method not described here.

Tyrosine-protein kinase JAK1 (Homo sapiens), sequence (P23458 whole entry): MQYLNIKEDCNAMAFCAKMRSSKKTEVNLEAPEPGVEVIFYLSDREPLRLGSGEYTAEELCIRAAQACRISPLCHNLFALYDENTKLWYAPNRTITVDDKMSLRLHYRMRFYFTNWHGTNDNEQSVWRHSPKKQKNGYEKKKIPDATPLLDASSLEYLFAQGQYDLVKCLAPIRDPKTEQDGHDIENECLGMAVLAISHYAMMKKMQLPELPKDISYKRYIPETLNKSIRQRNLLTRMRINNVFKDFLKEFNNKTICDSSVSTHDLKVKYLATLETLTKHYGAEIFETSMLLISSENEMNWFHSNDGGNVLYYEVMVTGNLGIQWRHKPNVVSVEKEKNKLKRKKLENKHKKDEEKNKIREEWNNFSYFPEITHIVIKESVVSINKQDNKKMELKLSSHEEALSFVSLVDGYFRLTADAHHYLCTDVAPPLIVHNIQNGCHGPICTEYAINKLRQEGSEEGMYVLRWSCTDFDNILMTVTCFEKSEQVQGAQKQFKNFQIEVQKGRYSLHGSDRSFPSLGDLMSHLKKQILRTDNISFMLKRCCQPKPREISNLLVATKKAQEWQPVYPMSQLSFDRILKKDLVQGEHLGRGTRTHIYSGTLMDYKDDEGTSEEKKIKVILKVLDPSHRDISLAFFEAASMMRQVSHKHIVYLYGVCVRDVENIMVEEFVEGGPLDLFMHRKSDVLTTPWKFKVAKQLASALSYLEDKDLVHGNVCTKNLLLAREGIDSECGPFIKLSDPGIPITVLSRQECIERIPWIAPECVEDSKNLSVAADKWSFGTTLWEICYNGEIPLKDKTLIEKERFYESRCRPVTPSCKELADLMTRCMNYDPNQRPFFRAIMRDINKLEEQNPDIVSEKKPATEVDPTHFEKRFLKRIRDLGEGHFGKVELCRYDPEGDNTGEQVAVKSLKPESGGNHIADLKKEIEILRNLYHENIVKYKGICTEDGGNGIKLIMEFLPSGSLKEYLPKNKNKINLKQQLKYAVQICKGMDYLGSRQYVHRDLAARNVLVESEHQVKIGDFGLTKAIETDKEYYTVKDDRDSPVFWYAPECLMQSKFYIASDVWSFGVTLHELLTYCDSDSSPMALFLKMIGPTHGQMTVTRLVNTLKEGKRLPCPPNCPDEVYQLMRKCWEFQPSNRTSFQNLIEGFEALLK
Adenosylhomocysteinase (Homo sapiens), sequence (P23526 2-432 limits assumed): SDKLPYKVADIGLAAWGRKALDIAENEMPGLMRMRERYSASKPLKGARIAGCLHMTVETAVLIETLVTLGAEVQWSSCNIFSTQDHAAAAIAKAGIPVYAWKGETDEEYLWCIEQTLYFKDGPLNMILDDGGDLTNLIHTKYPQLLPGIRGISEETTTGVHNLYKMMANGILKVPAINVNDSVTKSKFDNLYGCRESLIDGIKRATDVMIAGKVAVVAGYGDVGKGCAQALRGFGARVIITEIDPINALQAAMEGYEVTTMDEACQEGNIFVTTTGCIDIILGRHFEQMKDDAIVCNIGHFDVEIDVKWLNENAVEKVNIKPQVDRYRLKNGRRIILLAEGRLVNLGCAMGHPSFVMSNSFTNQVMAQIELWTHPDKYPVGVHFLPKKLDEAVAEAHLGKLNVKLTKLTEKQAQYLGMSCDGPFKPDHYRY

Cc1ccc(C(=O)Nc2cccc(C(F)(F)F)c2)cc1Nc1nc(-c2cccnc2)nc2c1cnn2C
ED50 [1]: 5.04 µM | ED50 [2]: 8.82 µM | ED50 [3]: 0.0179 µM | ED50 [4]: 0.0138 µM | ED50 [5]: 4.94 µM | ED50 [6]: 6.41 µM | ED50 [7]: 1.15 µM | ED50 [8]: 3.23 µM | ED50 [9]: 9.12 µM | ED50 [10]: 5.44 µM | ED50 [11]: 3.43 µM | ED50 [12]: 5.02 µM | ED50 [13]: 0.103 µM | ED50 [14]: 0.017 µM | ED50 [15]: 0.0377 µM | ED50 [16]: 90.6 µM | ED50 [17]: 11.4 µM | ED50 [18]: 4.61 µM | ED50 [19]: 1.23 µM | ED50 [20]: 501 µM | ED50 [21]: 3.18 µM | ED50 [22]: 0.00136 µM | ED50 [23]: 2.92 µM | ED50 [24]: 0.146 µM | ED50 [25]: 2.68 µM | ED50 [26]: 1.34 µM | ED50 [27]: 1.12 µM | ED50 [28]: 8.87 µM | ED50 [29]: 0.00533 µM | ED50 [30]: 0.0304 µM | ED50 [31]: 49.3 µM | ED50 [32]: 23.3 µM | ED50 [33]: 2.95 µM | ED50 [34]: 0.0219 µM | ED50 [35]: 4.18 µM | ED50 [36]: 0.13 µM | ED50 [37]: 3.6 µM | ED50 [38]: 3.59 µM | ED50 [39]: 0.0171 µM | ED50 [40]: 74.6 µM | ED50 [41]: 6.52 µM | ED50 [42]: 8.4 µM | ED50 [43]: 0.122 µM | ED50 [44]: 13 µM | ED50 [45]: 0.29 µM | ED50 [46]: 0.362 µM | ED50 [47]: 0.445 µM

Cc1ccc(C(=O)Nc2cccc(C(F)(F)F)c2)cc1Nc1nc(-c2cccnc2)nc2nn(C)cc12
ED50 [1]: 0.0539 µM | ED50 [2]: 1.74 µM | ED50 [3]: 8.2 µM | ED50 [4]: 0.0748 µM | ED50 [5]: 0.0533 µM | ED50 [6]: 4.74 µM | ED50 [7]: 0.0267 µM | ED50 [8]: 2.53 µM | ED50 [9]: 0.0562 µM | ED50 [10]: 0.677 µM | ED50 [11]: 10.3 µM | ED50 [12]: 64 µM | ED50 [13]: 0.0238 µM | ED50 [14]: 0.0151 µM | ED50 [15]: 0.107 µM | ED50 [16]: 10.8 µM | ED50 [17]: 0.06 µM | ED50 [18]: 0.0222 µM | ED50 [19]: 0.137 µM | ED50 [20]: 9.38 µM | ED50 [21]: 8.73 µM | ED50 [22]: 0.00616 µM | ED50 [23]: 8.18 µM | ED50 [24]: 0.526 µM | ED50 [25]: 0.0012 µM | ED50 [26]: 0.0262 µM | ED50 [27]: 0.00986 µM | ED50 [28]: 0.546 µM | ED50 [29]: 7.13 µM | ED50 [30]: 12.9 µM | ED50 [31]: 0.631 µM | ED50 [32]: 3690 µM | ED50 [33]: 0.593 µM | ED50 [34]: 0.281 µM | ED50 [35]: 4.91 µM | ED50 [36]: 0.0388 µM | ED50 [37]: 0.55 µM | ED50 [38]: 1.85 µM | ED50 [39]: 0.291 µM | ED50 [40]: 0.514 µM | ED50 [41]: 10.8 µM | ED50 [42]: 2.05 µM | ED50 [43]: 0.139 µM | ED50 [44]: 0.053 µM | ED50 [45]: 0.0058 µM | ED50 [46]: 0.016 µM | ED50 [47]: 0.31 µM
